≈ marks a conversion by molar mass, not a printed value. Calls of active or inactive are those of the source. The calls are words filed in the database; no cut-off is given here.
What was measured:
Pseudomonas aeruginosa [1] = assay: Antimicrobial activity against Pseudomonas aeruginosa HPA10586 by broth dilution method; format: functional
Pseudomonas aeruginosa [2] = assay: Microbicidal activity against Pseudomonas aeruginosa BA selected after 4 times MIC compound exposure; format: functional
Escherichia coli [3] = assay: Antimicrobial activity against Escherichia coli W3110 by broth dilution method; format: functional
Pseudomonas aeruginosa [4] = assay: Antimicrobial activity against Pseudomonas aeruginosa 621 by broth dilution method; format: functional
Klebsiella pneumoniae = assay: Antimicrobial activity against Klebsiella pneumoniae 1338665 by broth dilution method; format: functional
Pseudomonas aeruginosa [5] = assay: Antimicrobial activity against Pseudomonas aeruginosa 860 by broth dilution method; format: functional
Acinetobacter baumannii [6] = assay: Antimicrobial activity against Acinetobacter baumannii HPA74510 selected after 4 times MIC compound exposure; format: functional
Pseudomonas aeruginosa [7] = assay: Antimicrobial activity against Pseudomonas aeruginosa 527 by broth dilution method; format: functional
Enterobacter cloacae [8] = assay: Antimicrobial activity against Enterobacter cloacae S9369 selected after MIC of compound exposure by broth dilution method; format: functional
Enterobacter cloacae [9] = assay: Microbicidal activity against Enterobacter cloacae S9369 selected after 8 times MIC compound exposure; format: functional
Escherichia coli [10] = assay: Antimicrobial activity against Escherichia coli W3110 assessed as appearance of short filaments at 4 ug/mL after 3 hrs by phase-contrast microscopy; format: functional, organism-based
AmpC = AmpC (Escherichia coli, UniProt Q83TT7); assay: Inhibition of Escherichia coli ATCC 25922 AmpC
Sequence of AmpC (Q83TT7 whole entry): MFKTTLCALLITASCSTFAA

Enterobacter cloacae [11] = assay: Antimicrobial activity against Enterobacter cloacae S9369 assessed as highest concentration at which colonies reappeared; format: functional
[12] = Inhibition of beta-lactamase KPC-2
Enterobacter cloacae [13] = assay: Antimicrobial activity against Enterobacter cloacae S4741B assessed as log reduction in colony count after 24 hrs; format: functional
[14] = Inhibition of Pseudomonas aeruginosa 143724R beta-lactamase class C
Beta-lactamase = Beta-lactamase (Citrobacter freundii, UniProt P05193); assay: Inhibition of Citrobacter freundii AmpC
Sequence of Beta-lactamase (P05193 whole entry): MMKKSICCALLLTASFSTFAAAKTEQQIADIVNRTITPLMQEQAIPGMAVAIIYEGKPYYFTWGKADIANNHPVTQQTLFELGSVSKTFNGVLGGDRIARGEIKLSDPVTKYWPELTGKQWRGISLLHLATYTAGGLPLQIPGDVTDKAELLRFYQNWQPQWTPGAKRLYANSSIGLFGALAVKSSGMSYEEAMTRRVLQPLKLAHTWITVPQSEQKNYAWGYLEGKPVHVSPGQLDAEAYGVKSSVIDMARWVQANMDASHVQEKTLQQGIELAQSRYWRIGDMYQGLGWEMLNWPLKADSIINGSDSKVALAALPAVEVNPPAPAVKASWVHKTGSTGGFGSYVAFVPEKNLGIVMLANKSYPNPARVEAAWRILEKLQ

[15] = Inhibition of Beta-lactamase IMP1
Acinetobacter baumannii [16] = assay: Antimicrobial activity against Acinetobacter baumannii HPA74510 assessed as log reduction in colony count after 24 hrs; format: functional
Pseudomonas aeruginosa [17] = assay: Microbicidal activity against Pseudomonas aeruginosa HPA10586 selected after 8 times MIC compound exposure; format: functional

Compound	MIC (Pseudomonas aeruginosa [1]) [µg/mL]	MBC (Pseudomonas aeruginosa [2]) [µg/mL]	MIC (Escherichia coli [3]) [µg/mL]	MIC (Pseudomonas aeruginosa [4]) [µg/mL]	MIC (Klebsiella pneumoniae) [µg/mL]	MIC (Pseudomonas aeruginosa [5]) [µg/mL]	MIC (Acinetobacter baumannii [6]) [µg/mL]	MIC (Pseudomonas aeruginosa [7]) [µg/mL]	MBC (Enterobacter cloacae [8]) [µg/mL]	MBC (Enterobacter cloacae [9]) [µg/mL]	Activity (Escherichia coli [10])	IC50 (AmpC) [µM]	Activity (Enterobacter cloacae [11]) [mg/L]	IC50 [12] [µM]	FC (Enterobacter cloacae [13])	IC50 [14] [µM]	IC50 (Beta-lactamase) [µM]	IC50 [15] [µM]	FC (Acinetobacter baumannii [16])	MBC (Pseudomonas aeruginosa [17]) [µg/mL]
C[C@@H](O)[C@H]1C(=O)N2C(C(=O)O)=C(S[C@@H]3CN[C@H](C(=O)N(C)C)C3)[C@H](C)[C@H]12 [MEROPENEM]	> 128	2 (≈ 5.22 µM)	0.25 (≈ 0.652 µM)	0.125 (≈ 0.326 µM)	4 (≈ 10.4 µM)	4 (≈ 10.4 µM)	> 128	2 (≈ 5.22 µM)	2	–	–	–	–	–	–	–	–	–	–	–
CC1(C)[C@H](NC(=O)/C(=N\OCc2cc(=O)c(O)cn2O)c2csc(N)n2)C(=O)N1OS(=O)(=O)O (stereo in doubt)	–	–	–	–	–	–	–	–	–	8 (≈ 15.4 µM)	Active	0.5	8	> 2500	3	27	2.7	> 2500	3	8 (≈ 15.4 µM)
